Source: patent US11440911B2, “Salts and crystals” (INTRA-CELLULAR THERAPIES, INC., priority 2017, dated 2022)

Key:
[1] = salt form of U.S. Pat. No. 7,183,282, precipitated from diethyl ether; cited from earlier work
[2] = target: T1, 5-HT2C (Homo sapiens, UniProt P28335); details: cited from earlier work
T1 sequence (P28335 33-458): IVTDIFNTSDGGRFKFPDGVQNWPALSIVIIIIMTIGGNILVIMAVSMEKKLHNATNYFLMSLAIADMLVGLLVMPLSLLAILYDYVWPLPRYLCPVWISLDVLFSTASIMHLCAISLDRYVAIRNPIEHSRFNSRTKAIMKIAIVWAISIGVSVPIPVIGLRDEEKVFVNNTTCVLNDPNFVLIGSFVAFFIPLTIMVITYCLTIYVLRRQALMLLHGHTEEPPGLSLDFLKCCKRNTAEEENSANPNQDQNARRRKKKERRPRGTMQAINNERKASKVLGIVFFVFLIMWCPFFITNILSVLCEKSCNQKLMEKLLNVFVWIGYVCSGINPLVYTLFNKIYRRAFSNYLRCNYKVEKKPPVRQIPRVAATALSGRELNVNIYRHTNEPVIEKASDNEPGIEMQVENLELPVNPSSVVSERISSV

[3] = target: H1 histaminergic (Homo sapiens, UniProt P35367); details: cited from earlier work
[4] = solubility of free base in organic solvents; format: physicochemical; details: variety of organic solvents
[5] = tested on: muscarinic; details: cited from earlier work
[6] = free base form; cited from earlier work

Sequence of H1 histaminergic (P35367 whole entry): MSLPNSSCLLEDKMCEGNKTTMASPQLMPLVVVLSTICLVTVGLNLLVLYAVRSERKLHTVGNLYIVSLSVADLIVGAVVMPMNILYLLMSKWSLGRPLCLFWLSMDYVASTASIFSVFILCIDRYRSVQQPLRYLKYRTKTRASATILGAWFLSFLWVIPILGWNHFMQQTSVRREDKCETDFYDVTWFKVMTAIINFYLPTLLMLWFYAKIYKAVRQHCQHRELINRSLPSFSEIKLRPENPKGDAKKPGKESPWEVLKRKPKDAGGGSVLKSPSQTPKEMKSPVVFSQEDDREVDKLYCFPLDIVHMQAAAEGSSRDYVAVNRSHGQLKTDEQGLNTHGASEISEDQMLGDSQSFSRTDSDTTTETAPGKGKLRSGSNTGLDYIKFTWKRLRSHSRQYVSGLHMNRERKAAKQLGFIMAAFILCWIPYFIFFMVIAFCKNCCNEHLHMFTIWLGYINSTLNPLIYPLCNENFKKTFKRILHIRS

solubility in organic solvents [4] | Structure (SMILES) | hygroscopicity [1] | stability [1] | binding to receptor [2] | binding to receptor [3] | binding to receptor [5] | aqueous solubility [6]
– | CN1CCN2c3c(cccc31)C1CN(CCCC(=O)c3ccc(F)cc3)CCC12.Cl (stereo not shown) [hydrochloride salt form of ITI-007] | hygroscopic | poor stability | – | – | – | –
good solubility | CN1CCN2c3c(cccc31)[C@@H]1CN(CCCC(=O)c3ccc(F)cc3)CC[C@@H]12 [ITI-007, 1-(4-fluoro-phenyl)-4-((6bR,10aS)-3-methyl-2,3,6b,9,10,10a-hexahydro-1H,7H-pyrido[3′,4′:4,5]pyrrolo[1,2,3-de]quinoxalin-8-yl)-butan-1-one] | – | – | negligible binding | negligible binding | negligible binding | poor aqueous solubility
